Read-outs that look alike come from different tables or passages of the source.
Key:
[1] = tested on: avian influenza virus KBNP-0028 (KCTC 10866BP); assay type: cell-based, A/chicken/Korea/SNU0028/2000(H9N2)
[2] = tested on: CEF (chicken embryo fibroblasts)

O=C(/C=C/CCc1ccc(O)cc1)CCc1ccc(O)c(O)c1 [12B-AJ-7A-1, 1-(3′,4′-dihydroxyphenyl)-7-(4″-hydroxyphenyl)-4(E)-hepten-3-one]
antiviral activities (in words) [1]: excellent antiviral activities
Number of wells which hemagglutination occurs (among 6 wells) ([1]; 12.5 μg/mL): 3
Number of wells which hemagglutination occurs (among 6 wells) ([1]; 25 μg/mL): 3
Number of wells which hemagglutination occurs (among 6 wells) ([1]; 50 μg/mL): 2
Number of wells which hemagglutination occurs (among 6 wells) ([1]; 100 μg/mL): 0
Cytotoxicity, MTT assay reading ([2]; 6.25 μg/mL): 0.424
Cytotoxicity, MTT assay reading ([2]; 12.5 μg/mL): 0.418
Cytotoxicity, MTT assay reading ([2]; 25 μg/mL): 0.347
Cytotoxicity, MTT assay reading ([2]; 50 μg/mL): 0.478
Cytotoxicity, MTT assay reading ([2]; 100 μg/mL): 0.411
Cytotoxicity, MTT assay reading ([2]; 200 μg/mL): 0.531

O=C(/C=C/CCc1ccc(O)c(O)c1)CCc1ccc(O)c(O)c1 [12B-AJ-7B, 1,7-bis(3,4-dihydroxyphenyl)-4(E)-hepten-3-one]
Number of wells which hemagglutination occurs (among 6 wells) ([1]; 12.5 μg/mL): 3
Number of wells which hemagglutination occurs (among 6 wells) ([1]; 25 μg/mL): 3
Number of wells which hemagglutination occurs (among 6 wells) ([1]; 50 μg/mL): 3
Number of wells which hemagglutination occurs (among 6 wells) ([1]; 100 μg/mL): 3
Cytotoxicity, MTT assay reading ([2]; 6.25 μg/mL): 0.413
Cytotoxicity, MTT assay reading ([2]; 12.5 μg/mL): 0.364
Cytotoxicity, MTT assay reading ([2]; 25 μg/mL): 0.345
Cytotoxicity, MTT assay reading ([2]; 50 μg/mL): 0.399
Cytotoxicity, MTT assay reading ([2]; 100 μg/mL): 0.427
Cytotoxicity, MTT assay reading ([2]; 200 μg/mL): 0.560

O=C(CCc1ccc(O)c(O)c1)CC(CCc1ccc(O)cc1)O[C@@H]1OC[C@@H](O)[C@H](O)[C@H]1O (stereo partly drawn) [12B-AJ-11B-1, 1-(3,4-dihydroxyphenyl)-7-(4-hydroxyphenyl)-3-heptanone-5-o-β-D-xylopyranose]
antiviral activities (in words) [1]: excellent antiviral activities
Number of wells which hemagglutination occurs (among 6 wells) ([1]; 12.5 μg/mL): 3
Number of wells which hemagglutination occurs (among 6 wells) ([1]; 25 μg/mL): 3
Number of wells which hemagglutination occurs (among 6 wells) ([1]; 50 μg/mL): 3
Number of wells which hemagglutination occurs (among 6 wells) ([1]; 100 μg/mL): 1
Cytotoxicity, MTT assay reading ([2]; 6.25 μg/mL): 0.535
Cytotoxicity, MTT assay reading ([2]; 12.5 μg/mL): 0.399
Cytotoxicity, MTT assay reading ([2]; 25 μg/mL): 0.483
Cytotoxicity, MTT assay reading ([2]; 50 μg/mL): 0.487
Cytotoxicity, MTT assay reading ([2]; 100 μg/mL): 0.316
Cytotoxicity, MTT assay reading ([2]; 200 μg/mL): 0.363

O=C(CCc1ccc(O)cc1)C[C@H](CCc1ccc(O)cc1)O[C@@H]1OC[C@@H](O)[C@H](O)[C@H]1O [12B-AJ-16A, (5S)1,7-bis(4-hydroxyphenyl)-5-o-β-D-xylopyranoside-heptane-3-one]
Number of wells which hemagglutination occurs (among 6 wells) ([1]; 12.5 μg/mL): 3
Number of wells which hemagglutination occurs (among 6 wells) ([1]; 25 μg/mL): 3
Number of wells which hemagglutination occurs (among 6 wells) ([1]; 50 μg/mL): 1
Number of wells which hemagglutination occurs (among 6 wells) ([1]; 100 μg/mL): 0
Cytotoxicity, MTT assay reading ([2]; 6.25 μg/mL): 0.441
Cytotoxicity, MTT assay reading ([2]; 12.5 μg/mL): 0.427
Cytotoxicity, MTT assay reading ([2]; 25 μg/mL): 0.432
Cytotoxicity, MTT assay reading ([2]; 50 μg/mL): 0.451
Cytotoxicity, MTT assay reading ([2]; 100 μg/mL): 0.302
Cytotoxicity, MTT assay reading ([2]; 200 μg/mL): 0.309

From patent publication US20110105738A1, “DIARYL HEPATONOID-BASED COMPOUNDS USEFUL AS VIRUS INHIBITORS” (priority 2008, published 2011)
